Legend:
Scirpus juncoides = assay: Paddy pot test, herbicidal effect on Scirpus juncoides; assay type: in vivo; parameters: scale not given here; conditions: Screening, 63 g/ha, examined after 3 weeks
Experimental: (§1) Plastic pots having an area of 100 cm^2 and a depth of 10 cm were filled with paddy soil which is puddled by adding water, and seeds of Echinochloa crus-galli and Scirpus juncoides were planted in the pots. After seeding, rice plants at the 2.5-leaf stage were transplanted and the pots were filled with water. The rice plants were grown in a greenhouse. […] The herbicidal effects and harmful effects on the rice plants were examined after 3 weeks. Herbicidal effects were examined according to the examination criteria described below and were represented by the herbicidal index. [table] […] [formula]

Echinochloa crus-galli = assay: Paddy pot test, herbicidal effect on Echinochloa crus-galli; assay type: in vivo; parameters: scale not given here; conditions: Screening, 63 g/ha, applied at 1.5-leaf stage, examined after 3 weeks
Experimental: as §1

rice plants = assay: Paddy pot test, harmful effects on transplanted rice plants; assay type: in vivo; parameters: scale not given here; conditions: Screening, 63 g/ha, applied at Echinochloa crus-galli 1.5-leaf stage, examined after 3 weeks
Experimental: as §1

Row | SMILES | melting point [°C] | Rice (harmful effects on the rice plants, index) (rice plants) | Scripus juncoides (herbicidal index) (Scirpus juncoides) | Echinochloa crus-galli (herbicidal index) (Echinochloa crus-galli)
1 | COc1ccc(C(=O)C2=C(O)CCCC2=O)c(Cl)c1N=S1(=O)CCCC1 [Example 127] | 153 to 155 | 0 | 8 | 8
2 | COc1ccc(C(=O)c2cnn(C)c2O)c(Cl)c1N=S(C)(C)=O [Example 150] | 164 to 166 | 0 | 8 | 5
3 | COC(=O)c1ccc(C(=O)c2cnn(C)c2O)c(Cl)c1N=S(C)(C)=O [Example 161] | 115 to 125 | 0 | 8 | 9
4 | CCS(=O)(CC)=Nc1c(OC)ccc(C(=O)c2cnn(C)c2O)c1Cl [Example 247] | 165 to 168 | 0 | 9 | 10
5 | O=C1CCCC(O)=C1C(=O)c1ccc(OC(F)F)c(N=S2(=O)CCCCC2)c1Cl [Example 179] | 125 to 127 | 1 | 7 | 7
6 | COc1ccc(C(=O)c2cnn(C)c2OC(=O)c2ccc([N+](=O)[O-])cc2)c(Cl)c1N=S1(=O)CCCCC1 [Example 139] | 151 to 154 | 0 | 8 | 10
7 | Cc1ccc(C(=O)c2c(C)nn(C)c2O)c(C)c1N=S1(=O)CCCCC1 [Example 109] | 122 to 124 | 0 | 8 | 7
8 | CCS(=O)(CC)=Nc1c(C)ccc(C(=O)C2=C(O)CCCC2=O)c1C [Example 158] | – | 0 | 5 | 5
9 | CSC(=O)Oc1c(C(=O)c2cccc(N=S3(=O)CCCCC3)c2C)cnn1C [Example 193] | 149 to 151 | 0 | 7 | 6
10 | Cc1ccc(C(=O)C2=C(O)CCCC2=O)c(C)c1N=S1(=O)CCCCC1 [Example 110] | – | 0 | 8 | 10
11 | COC(=O)c1ccc(C(=O)c2cnn(C)c2OC(=O)SC(C)C)c(Cl)c1N=S1(=O)CCCCC1 [Example 201] | – | 0 | 7 | 5
12 | CCCS(=O)(CCC)=Nc1c(OC)ccc(C(=O)c2cnn(C)c2OCc2ccc3ccccc3c2)c1Cl [Example 146] | – | 0 | 6 | 5
13 | COc1ccc(C(=O)c2cnn(C)c2O)c(Cl)c1N=S(C)(=O)C(C)C (stereo not drawn) [Example 210] | 167 to 169 | 0 | 9 | 6
14 | COc1ccc(C(=O)c2cnn(C)c2OCc2ccccc2)c(Cl)c1N=S1(=O)CCCCC1 [Example 107] | – | 0 | 7 | 7
15 | COc1ccc(C(=O)c2c(C)nn(C)c2O)c(Cl)c1N=S1(=O)CCCCC1 [Example 250] | 138 to 140 | 0 | 8 | 7
16 | COc1c(C(=O)c2cnn(C)c2OCc2ccc3ccccc3c2)ccc(C)c1N=S1(=O)CCCCC1 [Example 136] | – | 0 | 8 | 7
17 | COc1ccc(C(=O)c2c(C)nn(C)c2OCc2ccc3ccccc3c2)c(Cl)c1N=S1(=O)CCCCC1 [Example 253] | – | 0 | 8 | 6
18 | CSC(=O)Oc1c(C(=O)c2cccc(N=S3(=O)CCCCC3)c2Br)cnn1C [Example 197] | – | 0 | 7 | 7
19 | COc1ccc(C(=O)C2=C(O)CCCC2=O)c(Cl)c1N=S(C)(C)=O [Example 149] | 150 to 152 | 0 | 6 | 5
20 | Cn1ncc(C(=O)c2ccc(OC(F)F)c(N=S3(=O)CCCCC3)c2Cl)c1OCc1ccc2ccccc2c1 [Example 182] | – | 0 | 7 | 10
21 | COc1ccc(C(=O)c2cnn(C)c2OCc2ccc3ccccc3c2)c(OC)c1N=S1(=O)CCOCC1 [Example 134] | – | 0 | 8 | 5
22 | CCCS(=O)(=O)Oc1c(C(=O)c2ccc(OC)c(N=S3(=O)CCCCC3)c2Cl)cnn1C [Example 130] | – | 0 | 8 | 10
23 | COC(=O)c1ccc(C(=O)c2cnn(C)c2OC(=O)SC(C)(C)C)c(Cl)c1N=S1(=O)CCCCC1 [Example 203] | – | 0 | 7 | 10
24 | COc1ccc(C(=O)c2cnn(C)c2O)c(Cl)c1N=S(C)(=O)Cc1ccccc1 (stereo not drawn) [Example 119] | – | 0 | 8 | 10

The next lines start with results.

Row | melting point [°C] | Rice (harmful effects on the rice plants, index) (rice plants) | SMILES | Scripus juncoides (herbicidal index) (Scirpus juncoides) | Echinochloa crus-galli (herbicidal index) (Echinochloa crus-galli)
25 | 85 to 87 | 0 | COc1c(C(=O)c2cnn(C)c2O)ccc(C)c1N=S1(=O)CCCCC1 [Example 135] | 7 | 5
26 | 107 to 109 | 0 | COc1ccc(C(=O)c2cnn(C)c2O)c(F)c1N=S1(=O)CCCCC1 [Example 112] | 8 | 8
27 | 158 to 161 | 0 | Cn1ncc(C(=O)c2ccc(OC(F)F)c(N=S3(=O)CCCCC3)c2Cl)c1O [Example 181] | 9 | 10
28 | 84 to 86 | 0 | COc1ccc(C(=O)c2cnn(C)c2O)c(Cl)c1N=S1(=O)CCCC1C (stereo not drawn) [Example 218] | 7 | 6
29 | 224 to 226 | 0 | COc1ccc(C(=O)c2cnn(C)c2[O-])c(Cl)c1N=S1(=O)CCCCC1.[Na+] [Example 115] | 8 | 10
30 | 146 to 148 | 0 | C#CCOc1c(C(=O)c2ccc(OC)c(N=S3(=O)CCCCC3)c2Cl)cnn1C [Example 123] | 5 | 7
31 | 102 to 104 | 0 | CC(C)c1ccc(C(=O)c2cnn(C)c2O)c(Cl)c1N=S1(=O)CCCCC1 [Example 208] | 7 | 8
32 | 163 to 165 | 0 | COc1ccc(C(=O)c2cnn(C)c2OC(=O)SC)c(Cl)c1N=S1(=O)CCCCC1 [Example 154] | 8 | 10
33 | 166 to 168 | 0 | Cc1c(N=S2(=O)CCCCC2)cccc1C(=O)c1cnn(C)c1O [Example 191] | 7 | 6
34 | 134 to 136 | 0 | COc1ccc(C(=O)c2cnn(C)c2O)c(Cl)c1N=S1(=O)CCCC1 [Example 126] | 8 | 10
35 | 151 to 153 | 0 | COc1ccc(C(=O)c2cnn(C)c2O)c(OC)c1N=S1(=O)CCCC1 [Example 198] | 7 | 5
36 | 171 to 173 | 0 | CCn1ncc(C(=O)c2ccc(OC)c(N=S3(=O)CCCC3)c2Cl)c1O [Example 128] | 8 | 10
37 | 72 to 74 | 0 | COc1ccc(C(=O)c2cnn(C)c2O)c(OC)c1N=S1(=O)CCOCC1 [Example 133] | 7 | 6
38 | – | 0 | COC(=O)Oc1c(C(=O)c2ccc(OC)c(N=S3(=O)CCCCC3)c2Cl)cnn1C [Example 104] | 9 | 10
39 | – | 0 | CCOc1ccc(C(=O)c2cnn(C)c2OC(=O)SC)c(OC)c1N=S1(=O)CCCCC1 [Example 177] | 7 | 5
